Several values for one entry are separate records, joined by “and”; a condition that tells them apart may be missing. Equal entries are not always repeated.
How the values were obtained:
T-47D cells = assay: WST-1 proliferation assay of T-47D cells; assay type: cell-based, human; details: for Single drug: absorbance at 450 nm as % of solvent control / Combi: absorbance at 450 nm as % of solvent control, agent in combination with 4-OHT / SE1 (synergistic effect, A anti-cancer compound alone / A combination): 4 days; for Single drug: absorbance at 450 nm as % of solvent control: OHT 10 or 20 μM, EN 10 μM, ETM 25 nM, FUL 1.0 μM, EXE 0.1 μM, Pab 50 nM, Doc 1.0 nM; for Combi: absorbance at 450 nm as % of solvent control, agent in combination with 4-OHT: agent at the single drug concentration plus 4-OHT; for growth inhibition by the combination with 4-OHT compared to the individual substances alone: FIG. 2, 7 days; for SE1 (synergistic effect, A anti-cancer compound alone / A combination): agent plus 4-OHT versus agent alone
Description: The human breast cancer cell line T-47 D (ACC 739) was obtained from DSMZ as frozen cell pellet (Deutsche Sammlung von Mikroorganismen und Zellkulturen). Originally, these cells T-47D cell line was isolated by Keydar et al. (1979) from a pleural effusion obtained from a patient with an infiltrating ductal carcinoma of the breast T-47D is expressing the ER, PR and AR but lacking HER2/neu overexpression. Thus, T-47D may represent a cell line representative for the most prevalent breast cancer subtype.
T-47D were grown routinely in RPMI medium containing 10% fetal calf serum (FCS) and antibiotics in a humidified incubator at 36.5° C./90% humidity and 5% CO2. Cells were maintained in cell culture bottles for less than 20 passages before the individual experiments were conducted; cell suspensions were cultured 96 well plates and exposed at various concentrations of the individual agents; incubation time varied as indicated in the respective figures. WST-1 assay was used to monitor proliferation at 450 nm wavelength.
Growth was as compared to control using WST-1 assay (monitoring absorption at 450 nm wavelength as indicator for cell viability compared to growth control).
(§1) T-47D cells were grown routinely in RPMI medium containing 10% fetal calf serum (FCS) and antibiotics in a humidified incubator at 36.5° C./90% humidity and 5% CO2. […] WST-1 assay was used to monitor proliferation at 450 nm wavelength.

ZR-75-1 = assay: WST-1 proliferation assay of ZR-75-1 cells; assay type: cell-based, human; details: 4 days; for Single drug: absorbance at 450 nm as % of solvent control: OHT 10 or 20 μM, EN 10 μM, ETM 25 nM, FUL 1.0 μM, EXE 0.1 μM, Pab 50 nM, Doc 1.0 nM; for Combi: absorbance at 450 nm as % of solvent control, agent in combination with 4-OHT: agent at the single drug concentration plus 4-OHT; for SE1 (synergistic effect, A anti-cancer compound alone / A combination): agent plus 4-OHT versus agent alone
MDAMB453 = assay: WST-1 proliferation assay of MDAMB453 cells; assay type: cell-based, human; details: 4 days; for Single drug: absorbance at 450 nm as % of solvent control: OHT 10 or 20 μM, EN 5 μM, ETM 25 nM, FUL 1.0 μM, EXE 0.1 μM, Pab 50 nM, Doc 1.0 nM; for Combi: absorbance at 450 nm as % of solvent control, agent in combination with 4-OHT: agent at the single drug concentration plus 4-OHT; for SE1 (synergistic effect, A anti-cancer compound alone / A combination): agent plus 4-OHT versus agent alone
ZR-75-1N cells = assay: WST-1 proliferation assay of ZR-75-1N cells; assay type: cell-based, human; details: FIG. 3B, 4-OHT 20 μM plus Docetaxel 1, 2, 4, 8 nM, 5 days, average of 3 experiments
Procedure: as §1
Further the human breast cancer cell line ZR-75-1N was cultured as described above and subjected to 4-OHT at a concentration of 20 μM and Docextaxel (Doc) at various concentrations (1, 2, 4, and 8 nM)) as single drugs or in combination for 5 days.

VCaP cells = assay: WST-1 proliferation assay of VCaP cells; details: for Combi: absorbance at 450 nm as % of solvent control, agent in combination with 4-OHT: EN 10 μM or ABI 10 μM plus 4-OHT; for absorbance at 450 nm as % of solvent control, single compound: EN 10 μM, ABI 10 μM, 4-OHT concentration not stated
LNCaP cells = assay: WST-1 proliferation assay of LNCaP cells; details: for Combi: absorbance at 450 nm as % of solvent control, agent in combination with 4-OHT: EN 10 μM or ABI 10 μM plus 4-OHT; for absorbance at 450 nm as % of solvent control, single compound: EN 10 μM, ABI 10 μM, 4-OHT concentration not stated
[1] = FIG. 4A, 4-OHT 10 μM, Bicalutamide 5 or 10 μM, Enzalutamide 5 or 10 μM, day 5

Row | Structure (SMILES) | Single drug: absorbance at 450 nm as % of solvent control (T-47D cells) | Combi: absorbance at 450 nm as % of solvent control, agent in combination with 4-OHT (T-47D cells) | Single drug: absorbance at 450 nm as % of solvent control (ZR-75-1) | Combi: absorbance at 450 nm as % of solvent control, agent in combination with 4-OHT (ZR-75-1) | Single drug: absorbance at 450 nm as % of solvent control (MDAMB453) | Combi: absorbance at 450 nm as % of solvent control, agent in combination with 4-OHT (MDAMB453) | SE1 (synergistic effect, A anti-cancer compound alone / A combination) (T-47D cells) | SE1 (synergistic effect, A anti-cancer compound alone / A combination) (ZR-75-1) | SE1 (synergistic effect, A anti-cancer compound alone / A combination) (MDAMB453) | absorbance at 450 nm as % of solvent control, single compound (VCaP cells) | absorbance at 450 nm as % of solvent control, single compound (LNCaP cells) | also measured
1 | C=C1C[C@@H]2[C@H](CC[C@]3(C)C(=O)CC[C@@H]23)[C@@]2(C)C=CC(=O)C=C12 [Exemestane] | 70 % of solvent control | 47 % of solvent control | 81 % of solvent control | 57 % of solvent control | 118 % of solvent control | 33 % of solvent control | – | – | – | – | – | growth inhibition by the combination with 4-OHT compared to the individual substances alone (T-47D cells): significant growth inhibition
2 | CC/C(=C(\c1ccc(O)cc1)c1ccc(OCCNC)cc1)c1ccccc1 [Endoxifen] | 54 % of solvent control | 35 % of solvent control | 84 % of solvent control | 49 % of solvent control | 113 % of solvent control | 39 % of solvent control | 1.5 | 1.7 | 1.2 | – | – | –
3 | C[C@]12CC[C@@H]3c4ccc(O)cc4C[C@@H](CCCCCCCCC[S+]([O-])CCCC(F)(F)C(F)(F)F)[C@H]3[C@@H]1CC[C@@H]2O (stereo partly shown) [Fulvestrant] | 38 % of solvent control | 22 % of solvent control | 90 % of solvent control | 43 % of solvent control | 80 % of solvent control | 27 % of solvent control | – | – | – | – | – | growth inhibition by the combination with 4-OHT compared to the individual substances alone (T-47D cells): significant growth inhibition
4 | CC(=O)O[C@@]12CO[C@@H]1C[C@H](O)[C@@]1(C)C(=O)[C@H](O)C3=C(C)[C@@H](OC(=O)[C@H](O)[C@@H](NC(=O)OC(C)(C)C)c4ccccc4)C[C@@](O)([C@@H](OC(=O)c4ccccc4)[C@H]21)C3(C)C [Docetaxel] | 31 % of solvent control | 20 % of solvent control | 72 % of solvent control | 43 % of solvent control | 103 % of solvent control | 89 % of solvent control | – | – | – | – | – | effect on proliferation of the combination with 4-OHT compared to the single drugs (T-47D cells; FIG. 3A, Docetaxel 1, 2, 4, 8 nM, 5 days): synergistic effect; effect on proliferation of the combination with 4-OHT (ZR-75-1N cells): clear effect of the combination is seen at the lowest dose
5 | CNC(=O)c1ccc(N2C(=S)N(c3ccc(C#N)c(C(F)(F)F)c3)C(=O)C2(C)C)cc1F [Enzalutamide] | 62 % of solvent control | 28 % of solvent control | 71 % of solvent control | 55 % of solvent control | 66 % of solvent control | 57 % of solvent control | 2.2 | 1.3 | 1.2 | 32 % of solvent control | 84 % of solvent control | Combi: absorbance at 450 nm as % of solvent control, agent in combination with 4-OHT (VCaP cells): 30 % of solvent control; effect on cell growth as single compound (VCaP cells; FIG. 4B): very sensitive; effect on cell growth of the combination with 4-OHT (VCaP cells; FIG. 4B): synergistic effect; Combi: absorbance at 450 nm as % of solvent control, agent in combination with 4-OHT (LNCaP cells): 58 % of solvent control; effect on cell growth of the combination with 4-OHT (LNCaP cells; FIG. 4A, 4-OHT 10 μM plus Bicalutamide 10 μM or Enzalutamide 10 μM, day 5): growth inhibition with a significant synergistic effect; effect on cell growth as single compound (LNCaP cells; [1]): not affected
6 | C[C@]12CC[C@H](O)CC1=CC[C@@H]1[C@@H]2CC[C@]2(C)C(c3cccnc3)=CC[C@@H]12 [Abiraterone] | – | – | – | – | – | – | – | – | – | 104 % of solvent control | 96 % of solvent control | Combi: absorbance at 450 nm as % of solvent control, agent in combination with 4-OHT (VCaP cells): 28.11 % of solvent control; Combi: absorbance at 450 nm as % of solvent control, agent in combination with 4-OHT (LNCaP cells): 90.57 % of solvent control
7 | CC(=O)c1c(C)c2cnc(Nc3ccc(N4CCNCC4)cn3)nc2n(C2CCCC2)c1=O [Palbociclib] | 80 % of solvent control | 33 % of solvent control | 91 % of solvent control | 71 % of solvent control | 112 % of solvent control | 120 % of solvent control | 2.4 | 1.3 | 0.9 | – | – | –
8 | C[C@]12CC[C@H]3[C@@H](CCC4=C(O)C(=O)CC[C@@]43C)[C@@H]1CC[C@@H]2O [4-OHT, 4-hydroxytestosterone] | 50 % of solvent control | – | – | – | – | – | – | – | – | 33 % of solvent control | 78 % of solvent control | Single drug: absorbance at 450 nm as % of solvent control (ZR-75-1; listed as OH20): 71 % of solvent control; Single drug: absorbance at 450 nm as % of solvent control (MDAMB453; listed as OHT): 55 % of solvent control and 40 % of solvent control; Single drug: absorbance at 450 nm as % of solvent control (MDAMB453; listed as OHT20): 76 % of solvent control; effect on cell growth as single compound (VCaP cells; FIG. 4B): very sensitive; effect on cell growth as single compound (LNCaP cells; [1]): only a slight effect; effect on cell growth as single compound (LNCaP cells; FIG. 5, 4-OHT 10 μM, Abiraterone 10 μM, day 5): only a slight effect
